Key:
NLRP3 [1] = biological target: T1, NLRP3 (Homo sapiens, UniProt Q96P20); assay: THP-1 cells pyroptosis assay; type: cell-based; parameters: Seed THP-1 cells (25,000 cells/well) containing 1.0 μg/ml LPS; host or cells: THP-1 cells; details: LPS 1 μg/ml, nigericin 5 μM, resazurin readout
Experimental: The cells were routinely passaged and grown to confluency (˜10^6 cells/ml). On the day of the experiment, THP-1 cells were harvested and resuspended into RPMI medium (without FBS). The cells were then counted and viability (>90%) checked by Trypan blue (Sigma #T8154). […] To this diluted cell solution was added LPS (Sigma #L4524) to give a 1 μg/ml Final Assay Concentration (FAC). 40 μl of the final preparation was aliquoted into each well of a 96-well plate. The plate thus prepared was used for compound screening.
The following method step-by-step assay was followed for compound screening. • 1. […] Incubate for 3 hrs at 37° C., 5% CO2 • 4. Add 5 μl nigericin (Sigma #N7143) (FAC 5 μM) to all wells • 5. Incubate for 1 hr at 37° C., 5% CO2 • 6. At the end of the incubation period, spin plates at 300×g for 3 mins and remove supernatant • 7. Then add 50 μl of resazurin (Sigma #R7017) (FAC 100 μM resazurin in RPMI medium without FBS) and incubate plates for a further 1-2 hrs at 37° C. and 5% CO2 • 8. […] IC50 data is fitted to a non-linear regression equation (log inhibitor vs response-variable slope 4-parameters)

NLRP3 [2] = biological target: T1, NLRP3; assay: Human whole blood IL-1β release assay; type: cell-based; parameters: Human whole blood in Li-heparin tubes was obtained from healthy donors; from tissue; host or cells: human whole blood from healthy donors; details: LPS 1 μg/ml, nigericin, IL-1β in supernatant (AlphaLisa), read-out: HWB IC50
Experimental: For systemic delivery, the ability to inhibit NLRP3 when the compounds are present within the bloodstream is of great importance. For this reason, the NLRP3 inhibitory activity of a number of compounds in human whole blood was investigated in accordance with the following protocol.
Human whole blood in Li-heparin tubes was obtained from healthy donors from a volunteer donor panel. • 1. […] Incubate for 3 hrs at 37° C., 5% CO2 • 4. Add 1 μl nigericin (Sigma #N7143) ([…]) to all wells • 5. Incubate for 1 hr at 37° C., 5% CO2 • 6. At the end of the incubation period, spin plates at 300×g for 5 mins to pellet cells and remove 20 μl of supernatant and add to 96-well v-bottom plates for IL-1β analysis (note: these plates containing the supernatants can be stored at −80° C. to be analysed at a later date) • 7. IL-1β was measured according to the manufacturer protocol (Perkin Elmer-AlphaLisa IL-1 Kit AL220F-5000) • 8. IC50 data is fitted to a non-linear regression equation (log inhibitor vs response-variable slope 4-parameters)

T1 sequence (Q96P20 whole entry): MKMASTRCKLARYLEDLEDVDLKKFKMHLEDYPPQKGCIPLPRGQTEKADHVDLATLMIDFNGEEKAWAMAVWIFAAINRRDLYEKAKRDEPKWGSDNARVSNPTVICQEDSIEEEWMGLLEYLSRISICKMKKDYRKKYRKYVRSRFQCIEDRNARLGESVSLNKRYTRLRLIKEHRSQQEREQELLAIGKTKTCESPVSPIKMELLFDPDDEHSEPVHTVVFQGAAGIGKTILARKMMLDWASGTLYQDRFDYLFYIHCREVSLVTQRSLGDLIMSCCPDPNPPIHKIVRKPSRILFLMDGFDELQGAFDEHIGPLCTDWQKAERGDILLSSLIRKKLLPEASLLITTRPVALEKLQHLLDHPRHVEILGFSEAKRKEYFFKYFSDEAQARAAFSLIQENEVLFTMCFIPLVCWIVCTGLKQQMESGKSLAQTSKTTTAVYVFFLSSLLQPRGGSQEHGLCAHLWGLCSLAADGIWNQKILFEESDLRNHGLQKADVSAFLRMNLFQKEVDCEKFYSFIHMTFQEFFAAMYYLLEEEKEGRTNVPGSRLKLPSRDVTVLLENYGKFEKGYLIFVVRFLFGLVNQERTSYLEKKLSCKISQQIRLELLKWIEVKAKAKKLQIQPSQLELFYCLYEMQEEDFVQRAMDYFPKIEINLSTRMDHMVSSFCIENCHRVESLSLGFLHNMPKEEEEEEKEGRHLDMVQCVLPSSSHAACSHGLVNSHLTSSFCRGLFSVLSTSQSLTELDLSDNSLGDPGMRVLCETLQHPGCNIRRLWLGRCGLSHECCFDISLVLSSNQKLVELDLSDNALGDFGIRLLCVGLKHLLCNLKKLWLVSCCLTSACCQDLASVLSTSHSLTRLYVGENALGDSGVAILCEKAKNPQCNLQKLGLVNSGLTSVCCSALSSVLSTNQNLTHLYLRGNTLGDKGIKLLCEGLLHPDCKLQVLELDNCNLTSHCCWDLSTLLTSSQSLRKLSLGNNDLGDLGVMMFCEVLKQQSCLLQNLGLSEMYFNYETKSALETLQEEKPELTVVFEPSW

Row | Compound | IC50 (NLRP3 [1]) | IC50 (NLRP3 [2])
1 | CS(=O)(=O)NC(=O)Nc1c(-c2ccnc(OC3CCOCC3)c2)ccc2c1CCC2 [Example 33] | 250 to 500 nM | 1000 to 2000 nM
2 | CC(C)n1ccc(S(=O)(=O)NC(=O)Nc2c(-c3ccnc(OC4CCCOC4)c3)ccc3c2CCC3)n1 (stereo not drawn) [Example 74] | ≤ 250 nM | 1000 to 2000 nM
3 | Cc1cc2c(c(NC(=O)NS(=N)(=O)c3ccccc3)c1-c1ccnc(OC3CCN(C)CC3)c1)CCC2 (stereo not drawn) [Example 79, N-((6-Methyl-5-(2-((1-methylpiperidin-4-yl)oxy)pyridin-4-yl)-2,3-dihydro-1H-inden-4-yl)carbamoyl)benzenesulfonimidamide] | ≤ 250 nM | 1000 to 2000 nM
4 | CN1CCC(Oc2cc(-c3cc(F)cc(C4CCCC4)c3NC(=O)NS(C)(=O)=O)ccn2)CC1 [Example 41] | ≤ 250 nM | 1000 to 2000 nM
5 | CC(C)c1cc(F)cc(-c2ccnc(OC3CCN(C)CC3)c2)c1NC(=O)NS(C)(=O)=O [Example 43] | 500 to 1000 nM | ≤ 250 nM
6 | CC(C)n1ccc(S(=O)(=O)NC(=O)Nc2c(-c3ccnc(OC4CCN(C)C4)c3)ccc3c2CCC3)n1 (stereo not drawn) [Example 76] | 500 to 1000 nM | –
7 | CC(C)n1ccc(S(=O)(=O)NC(=O)Nc2c(-c3ccnc(OC4CCC4)c3)ccc3c2CCC3)n1 [Example 75] | ≤ 250 nM | 1000 to 2000 nM
8 | O=C(Nc1c(-c2ccnc(OC3CC3)c2)ccc2c1CCC2)NS(=O)(=O)c1ccn(C2CC2)n1 [Example 72] | ≤ 250 nM | 1000 to 2000 nM
9 | CO[C@H]1CC[C@@H](Oc2cc(-c3ccc4c(c3NC(=O)NS(C)(=O)=O)CCC4)ccn2)CC1 [Example 1, N-((5-(2-(((1s,4s)-4-Methoxycyclohexyl)oxy)pyridin-4-yl)-2,3-dihydro-1H-inden-4-yl)carbamoyl)methanesulfonamide] | ≤ 250 nM | 1000 to 2000 nM
10 | Cc1cc2c(c(NC(=O)NS(C)(=O)=O)c1-c1ccnc(O[C@H]3CC[C@H](N(C)C)CC3)c1)CCC2 [Example 46] | ≤ 250 nM | ≤ 250 nM
11 | CC(C)c1cc(F)cc(-c2ccnc(N(C)C)c2)c1NC(=O)NS(=O)(=O)c1ccn(C(C)C)n1 [comp ex 3, reference compound] | 2000 to 5000 nM | –
12 | CN1CCC(Oc2cc(-c3ccc4c(c3NC(=O)NS(C)(=O)=O)CCC4)ccn2)CC1 [Example 35] | ≤ 250 nM | ≤ 250 nM
13 | CC(C)(CN1CCC1)n1ccc(S(=O)(=O)NC(=O)Nc2c(-c3ccnc(OC4CC4)c3)ccc3c2CCC3)n1 [Example 65] | ≤ 250 nM | 250 to 500 nM
14 | CN1CCC(Oc2cc(-c3ccc4c(c3NC(=O)N=S(N)(=O)c3ccccc3)CCC4)ccn2)CC1 (stereo not drawn) [Example 78, N′-((5-(2-((1-Methylpiperidin-4-yl)oxy)pyridin-4-yl)-2,3-dihydro-1H-inden-4-yl)carbamoyl)benzenesulfonimidamide] | ≤ 250 nM | 2000 to 5000 nM
15 | O=C(Nc1c(-c2ccnc(OC3CC3)c2)ccc2c1CCO2)NS(=O)(=O)c1ccn(C2CC2)n1 [Example 71] | ≤ 250 nM | 500 to 1000 nM
16 | CO[C@H]1CC[C@H](Oc2cc(-c3c(C)cc4c(c3NC(=O)NS(C)(=O)=O)CCC4)ccn2)CC1 [Example 54] | ≤ 250 nM | 500 to 1000 nM
17 | CN1CCC(Oc2cc(-c3cc(F)cc(-c4ccccc4)c3NC(=O)NS(C)(=O)=O)ccn2)CC1 [Example 42] | 1000 to 2000 nM | 1000 to 2000 nM
18 | CC(C)n1ccc(S(=O)(=O)NC(=O)Nc2c(-c3ccnc(OC4CCOC4)c3)ccc3c2CCC3)n1 (stereo not drawn) [Example 70] | ≤ 250 nM | 500 to 1000 nM
19 | COc1cc(-c2cc(F)cc(C(C)C)c2NC(=O)NS(=O)(=O)c2ccn(C(C)C)n2)cc(C)n1 [comp ex 2, reference compound] | 2000 to 5000 nM | –
20 | O=C(Nc1c(-c2ccnc(OC3CC3)c2)ccc2c1CCO2)NS(=O)(=O)c1ccn(C2CCC2)n1 [Example 67] | ≤ 250 nM | 500 to 1000 nM

Row | Compound | IC50 (NLRP3 [1]) | IC50 (NLRP3 [2])
21 | CC1CC(Oc2cc(-c3ccc4c(c3NC(=O)NS(C)(=O)=O)CCC4)ccn2)CCO1 (stereo not drawn) [Example 8] | 250 to 500 nM | 1000 to 2000 nM
22 | CS(=O)(=O)NC(=O)Nc1c(-c2ccnc(OC3CCN(Cc4ccccc4)CC3)c2)ccc2c1CCC2 [Example 19] | ≤ 250 nM | 1000 to 2000 nM
23 | CC(C)n1ccc(S(=O)(=O)NC(=O)Nc2c(-c3ccnc(C4CC4)c3)ccc3c2CCC3)n1 [Example 69] | ≤ 250 nM | 500 to 1000 nM
24 | CN1CCC(COc2cc(-c3ccc4c(c3NC(=O)NS(C)(=O)=O)CCC4)ccn2)CC1 [Example 27] | 1000 to 2000 nM | 500 to 1000 nM
25 | CC(C)n1ccc(S(=O)(=O)NC(=O)Nc2c(-c3ccnc(Oc4ccccc4)c3)ccc3c2CCC3)n1 [Example 77] | ≤ 250 nM | 5000 to 10000 nM
26 | CO[C@H]1CC[C@@H](Oc2cc(-c3c(C)cc4c(c3NC(=O)NS(C)(=O)=O)CCC4)ccn2)CC1 [Example 55] | ≤ 250 nM | 500 to 1000 nM
27 | CC(C)n1ccc(S(=O)(=O)NC(=O)Nc2c(-c3ccnc(OC4CCN(C)CC4)c3)ccc3c2CCC3)n1 [Example 68, i-Isopropyl-N-((5-(2-((1-methylpiperidin-4-yl)oxy)pyridin-4-yl)-2,3-dihydro-1H-inden-4-yl)carbamoyl)-1H-pyrazole-3-sulfonamide] | ≤ 250 nM | 250 to 500 nM
28 | CN(C)CC(C)(C)n1ccc(S(=O)(=O)NC(=O)Nc2c(-c3ccnc(OC4CC4)c3)ccc3c2CCC3)n1 [Example 66] | ≤ 250 nM | 250 to 500 nM
29 | CN(C)CC(C)(C)n1ccc(S(=O)(=O)NC(=O)Nc2c(-c3ccnc(OC4CC4)c3)ccc3c2CCO3)n1 [Example 64, N-((5-(2-Cyclopropoxypyridin-4-yl)-2,3-dihydrobenzofuran-4-yl)carbamoyl)-1-(1-(dimethylamino)-2-methylpropan-2-yl)-1H-pyrazole-3-sulfonamide] | ≤ 250 nM | 250 to 500 nM
30 | Cc1cc2c(c(NC(=O)NS(C)(=O)=O)c1-c1ccnc(OC3CCOC3)c1)CCC2 (stereo not drawn) [Example 53] | ≤ 250 nM | 250 to 500 nM
31 | CS(=O)(=O)NC(=O)Nc1c(-c2ccnc(O[C@H]3CC[C@@](C)(O)CC3)c2)ccc2c1CCC2 [Example 4] | ≤ 250 nM | 250 to 500 nM
32 | CC(C)n1ccc(S(=O)(=O)NC(=O)Nc2c(-c3ccnc(OC4CCOCC4)c3)ccc3c2CCC3)n1 [Example 73] | ≤ 250 nM | 500 to 1000 nM
33 | C=CCN1CCC(Oc2cc(-c3ccc4c(c3NC(=O)NS(=O)(=O)CC=C)CCC4)ccn2)CC1 [Example 59, N-((5-(2-((1-Allylpiperidin-4-yl)oxy)pyridin-4-yl)-2,3-dihydro-1H-inden-4-yl)carbamoyl)prop-2-ene-1-sulfonamide] | ≤ 250 nM | 1000 to 2000 nM
34 | Cc1c(-c2ccc3c(c2NC(=O)NS(C)(=O)=O)CCC3)ccnc1OC1CCN(C)CC1 [Example 15] | 250 to 500 nM | 250 to 500 nM
35 | CN(C)C1CCC(Oc2cc(-c3ccc4c(c3NC(=O)NS(C)(=O)=O)CCC4)ccn2)CC1 (stereo not drawn) [Example 29] | ≤ 250 nM | ≤ 250 nM
36 | CS(=O)(=O)NC(=O)Nc1c(-c2ccnc(OC3CCN(C4CC4)CC3)c2)ccc2c1CCC2 [Example 22] | ≤ 250 nM | 2000 to 5000 nM
37 | Cc1cc2c(c(NC(=O)NS(C)(=O)=O)c1-c1ccnc(OCC3CCCN(C)C3)c1)CCC2 (stereo not drawn) [Example 47] | ≤ 250 nM | ≤ 250 nM
38 | Cc1cc2c(c(NC(=O)NS(C)(=N)=O)c1-c1ccnc(OC3CCN(C)CC3)c1)CCC2 (stereo not drawn) [Example 80, N-((6-Methyl-5-(2-((1-methylpiperidin-4-yl)oxy)pyridin-4-yl)-2,3-dihydro-1H-inden-4-yl)carbamoyl)methanesulfonimidamide] | ≤ 250 nM | 500 to 1000 nM
39 | CN1CCC(Oc2cc(-c3cc(F)cc(C4CCCCC4)c3NC(=O)NS(C)(=O)=O)ccn2)CC1 [Example 39] | ≤ 250 nM | 1000 to 2000 nM

Reference: patent publication US20210163412A1, “NOVEL SULFONEUREA COMPOUNDS” (Inflazome Limited, priority 2018, published 2021)
